# Source: PubChem BioAssay (NCI)
# Several values for one entry are separate records, joined by “and”; a condition that tells them apart may be missing. Equal values may be shown once.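 Assay format: 96-well plates, 48-hour exposure. GI50: concentration for 50% inhibition of growth. At the TGI there is no net growth.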 *1 amine or outer side, *2 acyl side, *3 side chain or, on linkers, in order; H or OH if unused. Where a SMILES comes first, the peptide text is derived from it. Bridges are numbered along the chain shown (N, C = ends). Roman numbers before positions name the chains, in order. [ ]: non-standard residue; d: D form. Actinocin(1to9) = Cc1c2oc3c(C)ccc(C(=O)[*:2])c3nc-2c(C(=O)[*:1])c(N)c1=O; NMeV = CN[CH](C(=O)O)C(C)C; Sar = CNCC(=O)O
# How the values were obtained:
# Assay in all cases: NCI anticancer screen, dose series, 48 h
# A498 renal = system: A498 renal
# A549 NSCLC = system: A549 NSCLC
# DU-145 prostate = system: DU-145 prostate
# HCC-2998 colon = system: HCC-2998 colon
# IGROV1 ovarian = system: IGROV1 ovarian
# K-562 leukemia = system: K-562 leukemia
# M14 melanoma = system: M14 melanoma
# MCF7 breast = system: MCF7 breast
# MDA-MB-435 = system: MDA-MB-435
# NCI-H460 lung = system: NCI-H460 lung
# OVCAR-5 ovarian = system: OVCAR-5 ovarian
# SF-295 CNS = system: SF-295 CNS
# SK-MEL-2 melanoma = system: SK-MEL-2 melanoma
# TK-10 renal = system: TK-10 renal
# UACC-62 melanoma = system: UACC-62 melanoma
# UO-31 renal = system: UO-31 renal
# HOP-92 NSCLC = system: HOP-92 NSCLC
SMILES,TGI (A498 renal) [µM],TGI (A549 NSCLC) [µM],TGI (DU-145 prostate) [µM],TGI (HCC-2998 colon) [µM],TGI (IGROV1 ovarian) [µM],TGI (K-562 leukemia) [µM],TGI (M14 melanoma) [µM],TGI (MCF7 breast) [µM],TGI (MDA-MB-435) [µM],TGI (NCI-H460 lung) [µM],TGI (OVCAR-5 ovarian),TGI (SF-295 CNS) [µM],TGI (SK-MEL-2 melanoma) [µM],TGI (TK-10 renal) [µM],TGI (UACC-62 melanoma),TGI (UO-31 renal),TGI (HOP-92 NSCLC) [µM],GI50 (HCC-2998 colon) [µM],GI50 (OVCAR-5 ovarian) [µM],GI50 (UO-31 renal) [µM]
Cc1c(CN2CCOCC2)c(CN2CCOCC2)c(C)n1-c1ccc(Cl)cn1,> 100,> 100,> 100,> 100,> 100,> 100,> 100,> 100,> 100,> 100,> 100 µM,> 100,> 100,> 100,> 100 µM,> 100 µM,,,,
COC(=O)C(Cc1c(-c2[nH]c3ccccc3c2CC(NC(C)=O)C(=O)OC)[nH]c2ccccc12)NC(C)=O (stereo not given),> 100,> 100,> 100,,> 100,> 100,> 100,,> 100,> 100,> 100 µM,> 100,> 100,> 100,> 100 µM,> 100 µM,> 100,,,
CC1=CP(=O)(OC(C)C)C=C(C)C1=C(Cl)Cl (stereo not given),,97.8,,> 100,> 100,> 100,> 100,,,> 100,> 100 µM,> 100,59,> 100,> 100 µM,27.2 µM,54.6,,,
Cc1cc(C(O)CCCc2ccccc2)cc(C)c1O (stereo not given),81.3,> 100,,> 100,> 100,> 100,> 100,,,> 100,> 100 µM,93.9,70.3,> 100,> 100 µM,60.4 µM,,,,
Cc1c(N)c(C#N)c2n(C)c3ncccc3n2c1=O,,> 100,,> 100,,> 100,> 100,,,> 100,,> 100,> 100,> 100,> 100 µM,> 100 µM,> 100,,,
C=C(CN(C)C)C(=O)c1ccccc1,41.7,53,30.2,32.7,36.3,14.3,7.54,,27.3,37.5,30.4 µM,47.4,32.9,13.4,30.1 µM,19.2 µM,5.79,,,
CN(C)CCNc1ncnc2nc(-c3ccccc3)c(-c3ccccc3)nc12,> 100,> 100,> 100,,> 100,,> 100,> 100,> 100,,> 100 µM,,> 100,> 100,> 100 µM,> 100 µM,,,,
O=C(O)CCC1C(=O)C2CCN1CC2 (stereo not given),> 100,> 100,> 100,> 100,> 100,> 100,> 100,> 100,> 100,> 100,> 100 µM,> 100,> 100,> 100,> 100 µM,> 100 µM,,,,
CC(C)(C)OC(=O)NC(Cc1ccc(OC(C)(C)C)cc1)C(=O)N[C@H]1CC[C@H](C(=O)O)C1 (stereo not given in full),> 100,> 100,> 100,> 100,> 100,> 100,> 100,> 100,> 100,> 100,> 100 µM,> 100,> 100,> 100,,,,,,
COC(=O)C1=C(N)C2=C(N)Oc3ccccc3C2CC1=C(C#N)C#N (stereo not given),68.6,> 100,61.9,32.9,48.4,57.3,43.3,93.1,> 100,,81.7 µM,90.2,> 100,52,36.3 µM,53.6 µM,,,,
CCc1n[nH]c(=O)n1-n1c(C)ccc1C,> 100,> 100,> 100,> 100,> 100,> 100,> 100,> 100,> 100,> 100,> 100 µM,> 100,> 100,> 100,> 100 µM,> 100 µM,,,,
O=C1NC(=S)NC(=O)C1=Cc1ccc([N+](=O)[O-])o1,> 100,> 100,,> 100,60.1,86.7,29.5,,,> 100,34.6 µM,> 100,> 100,> 100,39.1 µM,> 100 µM,36.3,,,
O=S(=O)(N=[Se](=O)(c1ccccc1)c1ccccc1)c1ccccc1,> 100,,,> 100,> 100,> 100,> 100,> 100,> 100,> 100,> 100 µM,> 100,> 100,> 100,,> 100 µM,> 100,,,
C=C1[C@@H](OC(C)=O)/C=C/C2C3C(=O)[C@@](C)(OC(C)=O)[C@H]([C@H](OC(C)=O)[C@]4(O)[C@@H](C)C(=O)O[C@H]4[C@H]1Cl)[C@@]23C (stereo not given in full),> 100,> 100,> 100,> 100,> 100,> 100,> 100,,> 100,> 100,> 100 µM,> 100,> 100,> 100,> 100 µM,> 100 µM,> 100,,,
O=S(=O)(Cc1ccccc1)c1nnc(S(=O)(=O)c2ccc(Cl)cc2)s1,43.6,68.1,34.3,,,> 100,33.7,> 100,90.6,48.2,56.8 µM,54.9,50.7,41.9,58.7 µM,44.5 µM,,,,
NN/C(=N\S(=O)(=O)c1cc(S(=O)(=O)c2ccccc2)cs1)Nc1ccc(Cl)cc1,> 100,> 100,> 100,,> 100,> 100,48.1,> 100,,56.6,> 100 µM,75.5,38.2,81.7,43.2 µM,> 100 µM,> 100,,,
C=C(C)C1Cc2c(cc3c(c2O)c(=O)c2ccccc2n3C)O1 (stereo not given),22.1,24.9,,28.3,4.16,,10.6,17,20.7,19,26.1 µM,18.2,26.7,27,7.57 µM,4.01 µM,21.3,,,
Cc1cc(N(CCC#N)CCC#N)ccc1/C(Sc1ccccc1)=C(\NC(=O)/C=C/c1ccccc1)C(=O)Sc1ccccc1,16.5,16,,23.9,2.78,> 58.7,6.3,,,23.4,16.3 µM,14.7,16.6,25.2,12.3 µM,6.15 µM,15,,,
COc1ccc(NCc2cccc3c(=O)c4ccc(Cl)cc4oc23)cc1,> 100,> 100,,> 100,> 100,> 100,> 100,> 100,> 100,,> 100 µM,> 100,> 100,> 100,> 100 µM,> 100 µM,> 100,,,
[N-]=[N+]=NC1(Cc2ccccc2)C(=O)Nc2ccccc2C1=O (stereo not given),> 100,> 100,,> 100,> 100,> 100,> 100,,,> 100,> 100 µM,> 100,> 100,> 100,> 100 µM,> 100 µM,> 100,,,
COC(=O)CSc1cc(Cl)c(C)cc1S(=O)(=O)Nc1n[nH]c(N)n1,> 10,> 10,> 10,> 10,> 10,> 10,> 10,> 10,,> 10,> 10 µM,> 10,> 10,> 10,,> 10 µM,> 10,,,
Cc1ccc(N=NC(=O)NNc2ccc(C)cc2Br)c(Br)c1,52.3,> 100,74,31.3,63.8,51.5,72,41.3,> 100,47.3,68.4 µM,,32,86.6,36.1 µM,77.2 µM,,,,
O=C(Cn1c2ccc(Br)cc2c2nc3ccccc3nc21)NNC(=O)NC1CCCCC1,> 100,41.7,86,> 100,,> 100,> 100,> 100,> 100,> 100,> 100 µM,> 100,> 100,> 100,> 100 µM,8.09 µM,,,,
CCOC(=O)/C1=C(\C)N(Cc2ccccc2)C(=O)c2ccccc2C(=O)c2c(OC(C)=O)ccc(OC(C)=O)c21,> 100,> 100,,37.4,> 100,> 100,,58.6,> 100,> 100,> 100 µM,> 100,> 100,> 100,> 100 µM,> 100 µM,43.9,,,
O=c1nc(N2CCCCC2)sc2[nH]c3ccccc3c12,> 100,> 100,> 100,,> 100,> 100,> 100,,> 100,> 100,24.8 µM,> 100,> 100,> 100,> 100 µM,54.9 µM,> 100,,,
"COc1ccc(CC2NC(=O)C(NC(=O)c3c4nc5c(C(=O)NC6C(=O)NC(Cc7ccc(OC)cc7)C(=O)N7CCCC7C(=O)N(C)CC(=O)N(C)C(C(C)C)C(=O)OC6C)ccc(C)c5oc-4c(C)c(=O)c3N)C(C)OC(=O)C(C(C)C)N(C)C(=O)CN(C)C(=O)C3CCCN3C2=O)cc1 (stereo not given) (I: TY(Me)P[Sar][NMeV] / II: TY(Me)P[Sar][NMeV]; ester I:1-I:C, II:1-II:C; linker I:N-II:N via Actinocin(1to9); configuration not given here)",0.0242,,0.0843,,,0.0708,0.135,,0.0265,,0.419 µM and 0.67 µM,> 100,0.00549,,0.00628 µM and 0.0307 µM,0.46 µM and 0.257 µM,,0.013,0.0302,0.0327
O=C(O[C@H](/C=C/c1ccccc1)P1(=O)N(Cc2ccccc2)[C@H]2CCCC[C@@H]2N1Cc1ccccc1)c1ccccc1,> 100,> 100,,> 100,18.6,> 100,> 100,> 100,46.2,> 100,> 100 µM,> 100,6.19,> 100,> 100 µM,38.3 µM,5.86,,,
Cc1ccc(S(=O)(=O)NC(=O)NC(CCCCN)C(=O)O)cc1 (stereo not given),,> 100,> 100,,> 100,> 100,> 100,> 100,,> 100,,> 100,> 100,> 100,> 100 µM,> 100 µM,> 100,,,
Cc1cc2c(cc1Cl)SC(NNC(=O)c1ccccc1)=NS2(=O)=O,> 10,> 10,> 10,> 10,> 10,> 10,> 10,5.76,> 10,> 10,> 10 µM,> 10,> 10,> 10,> 10 µM,,,,,
